Patent US12522594B2, “2-heteroaryl-3-oxo-2,3-dihydropyridazine-4-carboxamides for the treatment of cancer” (Deutsches Krebsforschungszentrum, priority 2017, dated 2026)

How the values were obtained:
AHR [1] = target: T1, AHR (Homo sapiens, UniProt P35869); experiment: In vitro assay 1: antagonism in human cell line (transactivation assay, U87 cells prestimulated with kynurenic acid, DRE firefly luciferase reporter); type: cell-based; design: host or cells: U87 glioblastoma cells, stably transfected with DRE firefly luciferase and renilla reporter constructs; conditions: 150 uM kynurenic acid, 20 hours, read-out: Assay 1: AHR-luc Hum Antagonism IC50
T1 sequence (P35869 11-848): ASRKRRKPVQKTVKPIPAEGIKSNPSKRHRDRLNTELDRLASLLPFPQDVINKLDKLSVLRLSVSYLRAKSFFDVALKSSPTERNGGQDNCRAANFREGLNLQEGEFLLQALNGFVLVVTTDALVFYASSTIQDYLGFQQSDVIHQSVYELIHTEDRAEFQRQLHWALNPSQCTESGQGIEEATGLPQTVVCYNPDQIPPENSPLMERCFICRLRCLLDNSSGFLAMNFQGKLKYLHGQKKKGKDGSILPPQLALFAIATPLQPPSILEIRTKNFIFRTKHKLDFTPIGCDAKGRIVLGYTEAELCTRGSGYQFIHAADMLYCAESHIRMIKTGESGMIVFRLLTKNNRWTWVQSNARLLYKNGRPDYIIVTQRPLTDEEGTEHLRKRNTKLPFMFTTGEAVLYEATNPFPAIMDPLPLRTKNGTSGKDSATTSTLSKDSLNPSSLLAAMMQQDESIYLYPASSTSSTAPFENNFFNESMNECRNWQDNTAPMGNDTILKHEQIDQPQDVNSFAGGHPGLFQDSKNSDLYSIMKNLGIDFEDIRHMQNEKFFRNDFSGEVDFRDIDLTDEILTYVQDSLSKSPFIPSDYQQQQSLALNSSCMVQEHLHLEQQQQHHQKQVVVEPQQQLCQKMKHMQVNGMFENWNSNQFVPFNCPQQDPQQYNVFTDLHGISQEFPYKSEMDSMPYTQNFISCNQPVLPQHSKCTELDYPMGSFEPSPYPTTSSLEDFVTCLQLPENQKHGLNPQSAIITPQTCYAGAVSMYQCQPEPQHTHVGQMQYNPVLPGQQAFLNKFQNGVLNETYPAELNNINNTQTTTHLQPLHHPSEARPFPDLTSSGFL
How it was run: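 Antagonism measured after kynurenic acid prestimulation in U87 cells that express AHR endogenously and stably harbor a firefly luciferase gene under DRE control plus a constitutive renilla construct. Positive and negative controls served for normalization.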

AHR [2] = target: T1, AHR; experiment: In vitro assay 2: agonism in human cell line (transactivation assay, U87 cells, DRE firefly luciferase reporter); type: cell-based; design: host or cells: U87 glioblastoma cells, stably transfected with DRE firefly luciferase and renilla reporter constructs; conditions: no kynurenic acid, 20 hours, read-out: Assay 2: AHR-luc Hum Agonism IC50
How it was run: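 Agonist readout: DRE firefly luciferase, with constitutive renilla reporter, in stably transfected U87 cells expressing AHR endogenously. Normalization used positive control (300 uM kynurenic acid) and negative control.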

IC50 (AHR [1]) [nM]	IC50 (AHR [2]) [nM]	SMILES
293	> 20000	Cn1cc(-n2nc(-c3ccc(Cl)cc3)cc(C(=O)NC[C@@H](O)CO)c2=O)cn1 [Example 28, 6-(4-Chlorophenyl)-N-[(2R)-2,3-dihydroxypropyl]-2-(1-methyl-1H-pyrazol-4-yl)-3-oxo-2,3-dihydropyridazine-4-carboxamide]
0.363	> 20000	O=C(NCC1(O)CCC1)c1cc(-c2ccc(C(F)(F)F)cc2)nn(-c2cnsc2)c1=O [Example 195, N-[(1-Hydroxycyclobutyl)methyl]-3-oxo-2-(1,2-thiazol-4-yl)-6-[4-(trifluoromethyl)phenyl]-2,3-dihydropyridazine-4-carboxamide]
171	> 20000	O=C(N[C@H]1COCC[C@H]1O)c1cc(-c2ccc(C(F)(F)F)nc2)nn(-c2cncc(F)c2)c1=O [Example 343, 1,5-Anhydro-2,4-dideoxy-2-[({2-(5-fluoropyridin-3-yl)-3-oxo-6-[6-(trifluoromethyl)pyridin-3-yl]-2,3-dihydropyridazine-4-yl}carbonyl)amino]-D-erythro-pentitol]
911	> 20000	O=C(N[C@H]1COC[C@H]1O)c1cc(-c2ccc(Cl)cc2)nn(-c2ccnnc2)c1=O (relative stereo) [Example 181, 3-(4-Chlorophenyl)-N-[(cis)-4-hydroxytetrahydrofuran-3-yl]-6-oxo-6H-1,4′-bipyridazine-5-carboxamide]
168	> 20000	C[C@H](CO)NC(=O)c1cc(-c2ccc(Cl)cc2)nn(-c2cncnc2)c1=O [Example 279, 6-(4-Chlorophenyl)-N-[(2R)-1-hydroxypropan-2-yl]-3-oxo-2-(pyrimidin-5-yl)-2,3-dihydropyridazine-4-carboxamide]
20.6	> 20000	C[C@H](NC(=O)c1cc(-c2ccc(Cl)cc2)nn(-c2cnn(C)c2)c1=O)C(C)(C)O [Example 316, 6-(4-Chlorophenyl)-N-[(2S)-3-hydroxy-3-methylbutan-2-yl]-2-(1-methyl-1H-pyrazol-4-yl)-3-oxo-2,3-dihydropyridazine-4-carboxamide]
37.1	> 20000	CC(C)(O)C(NC(=O)c1cc(-c2ccc(Cl)cc2)nn(-c2cncnc2)c1=O)C(F)(F)F (stereo not shown) [Example 185, 6-(4-Chlorophenyl)-3-oxo-2-(pyrimidin-5-yl)-N-(1,1,1-trifluoro-3-hydroxy-3-methylbutan-2-yl)-2,3-dihydropyridazine-4-carboxamide]
2.58	> 20000	C[C@@H](NC(=O)c1cc(-c2ccc(OC(F)(F)F)cc2)nn(-c2cnsc2)c1=O)C(C)(C)O [Example 327, N-[(2R)-3-Hydroxy-3-methylbutan-2-yl]-3-oxo-2-(1,2-thiazol-4-yl)-6-[4-(trifluoromethoxy)phenyl]-2,3-dihydropyridazine-4-carboxamide]
244	> 20000	Cn1cc(-n2nc(-c3ccc(Cl)cc3)cc(C(=O)NC(CO)CO)c2=O)cn1 [Example 31, 6-(4-Chlorophenyl)-N-(1,3-dihydroxypropan-2-yl)-2-(1-methyl-1H-pyrazol-4-yl)-3-oxo-2,3-dihydropyridazine-4-carboxamide]
1.07	> 20000	C[C@H](NC(=O)c1cc(-c2ccc(C(F)(F)F)cc2)nn(-c2cnn(C)c2)c1=O)C(C)(C)O [Example 206, N-[(2S)-3-Hydroxy-3-methylbutan-2-yl]-2-(1-methyl-1H-pyrazol-4-yl)-3-oxo-6-[4-(trifluoromethyl)phenyl]-2,3-dihydropyridazine-4-carboxamide]
4.27	> 20000	CC(C)(O)CNC(=O)c1cc(-c2ccc(Cl)cc2)nn(-c2cnsc2)c1=O [Example 222, 6-(4-Chlorophenyl)-N-(2-hydroxy-2-methylpropyl)-3-oxo-2-(1,2-thiazol-4-yl)-2,3-dihydropyridazine-4-carboxamide]
131	> 20000	C[C@H](NC(=O)c1cc(-c2ccc(Cl)cc2)nn(-c2cn[nH]c2)c1=O)C(C)(C)O [Example 276, 6-(4-Chlorophenyl)-N-[(2S)-3-hydroxy-3-methylbutan-2-yl]-3-oxo-2-(1H-pyrazol-4-yl)-2,3-dihydropyridazine-4-carboxamide]
74.9	> 20000	C[C@H](NC(=O)c1cc(-c2ccc(OC(F)F)cc2)nn(-c2cccnc2)c1=O)C(C)(C)O [Example 333, 6-[4-(Difluoromethoxy)phenyl]-N-[(2S)-3-hydroxy-3-methylbutan-2-yl]-3-oxo-2-(pyridin-3-yl)-2,3-dihydropyridazine-4-carboxamide]
4.37	> 20000	O=C(N[C@@H]1CC[C@@H]1O)c1cc(-c2ccc(C(F)(F)F)cc2)nn(-c2cccnc2)c1=O (relative stereo) [Example 224, N-cis-2- Hydroxycyclobutyl-3-oxo-2-(pyridin-3-yl)-6-[4-(trifluoromethyl)phenyl]-2,3-dihydropyridazine-4-carboxamide]
11.3	> 20000	Cn1cc(-n2nc(-c3ccc(Cl)cc3)cc(C(=O)N[C@@H]3CCC[C@]3(C)O)c2=O)cn1 (single isomer, unassigned) [Example 335, 6-(4-Chlorophenyl)-N-[(cis)-2-hydroxy-2-methylcyclopentyl]-2-(1-methyl-1H-pyrazol-4-yl)-3-oxo-2,3-dihydropyridazine-4-carboxamide]
10	> 20000	Cn1cc(-n2nc(-c3ccc(C(F)(F)F)cc3)cc(C(=O)N[C@@H]3CCC[C@@H]3O)c2=O)cn1 [Example 239, N-[(1R,2S)-2-Hydroxycyclopentyl]-2-(1-methyl-1H-pyrazol-4-yl)-3-oxo-6-[4-(trifluoromethyl)phenyl]-2,3-dihydropyridazine-4-carboxamide]
32	> 20000	O=C(N[C@@H]1COC[C@@H]1O)c1cc(-c2ccc(C(F)F)cc2)nn(-c2cccnc2)c1=O (single isomer, unassigned) [Example 318, 6-[4-(Difluoromethyl)phenyl]-N-[(cis)-4-hydroxy-tetrahydrofuran-3-yl]-3-oxo-2-(pyridin-3-yl)-2,3-dihydropyridazine-4-carboxamide]
8.23	17200	C[C@H](NC(=O)c1cc(-c2ccc(C(F)(F)F)nc2)nn(-c2cnsc2)c1=O)C(C)(C)O [Example 233, N-[(2S)-3-Hydroxy-3-methylbutan-2-yl]-3-oxo-2-(1,2-thiazol-4-yl)-6-[6-(trifluoromethyl)pyridin-3-yl]-2,3-dihydropyridazine-4-carboxamide]
11.8	> 20000	C[C@@H](CO)NC(=O)c1cc(-c2ccc(Cl)cc2)nn(-c2csc(Cl)c2)c1=O [Example 243, 6-(4-Chlorophenyl)-2-(5-chloro-3-thienyl)-N-[(2S)-1-hydroxypropan-2-yl]-3-oxo-2,3-dihydropyridazine-4-carboxamide]
23	> 20000	Cn1cc(-n2nc(-c3ccc(Cl)cc3)cc(C(=O)N[C@@H]3COC[C@@H]3O)c2=O)cn1 (racemic) [Example 43, 6-(4-Chlorophenyl)-N-[(cis)-4-hydroxytetrahydrofuran-3-yl]-2-(1-methyl-1H-pyrazol-4-yl)-3-oxo-2,3-dihydropyridazine-4-carboxamide]
0.823	> 20000	O=C(N[C@H](CO)CF)c1cc(-c2ccc(Cl)cc2)nn(-c2cnsc2)c1=O [Example 201, 6-(4-Chlorophenyl)-N-[(2R)-1-fluoro-3-hydroxypropan-2-yl]-3-oxo-2-(1,2-thiazol-4-yl)-2,3-dihydropyridazine-4-carboxamide]
81	> 20000	Cn1cc(-n2nc(-c3ccc(OC(F)(F)F)cc3)cc(C(=O)N[C@@H]3COC[C@H]3O)c2=O)cn1 (racemic) [Example 63, N-[(trans)-4-Hydroxytetrahydrofuran-3-yl]-2-(1-methyl-1H-pyrazol-4-yl)-3-oxo-6-[4-(trifluoromethoxy)phenyl]-2,3-dihydropyridazine-4-carboxamide]
30.6	> 20000	C[C@]1(O)CCC[C@H]1NC(=O)c1cc(-c2ccc(OC(F)(F)F)cc2)nn(-c2cccnc2)c1=O (relative stereo) [Example 328, N-[(cis)-2-Hydroxy-2-methylcyclopentyl]-3-oxo-2-(pyridin-3-yl)-6-[4-(trifluoromethoxy)phenyl]-2,3-dihydropyridazine-4-carboxamide]
